Legend:
[1] = molecular target: EIF2AK3 (PERK) catalytic domain (amino acids 536-1116) (Homo sapiens (Human), UniProt Q9NZJ5); experiment: PERK in vitro activity assay (isolated), TR-FRET kinase assay; conditions: isolated PERK enzyme, 1.5 μM ATP, GFP-eIF2a substrate; read-out: Biochemical IC50
Method in brief: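 Human PERK catalytic domain (aa 536-1116) with 100-200 nM GFP-eIF2a in 50 mM HEPES pH 7.5, 10 mM MgCl2, 1.0 mM EGTA, 0.01% Brij-35; enzyme-started reaction run 45 min at room temperature. Stopped with 10 mM EDTA, 2 nM Tb-anti-phospho-eIF2a added for 90 min; IC50 from TR-FRET ratio by 4-parameter logistic fit.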

PERK = PERK (Homo sapiens (Human), UniProt Q9NZJ5); experiment: PERK cellular assay (TR-FRET, HEK293-EGFP-eIF2α cells, tunicamycin-induced ER stress); assay type: cell-based; conditions: tunicamycin 2 hours, read-out: Cellular IC50 (μM) (EIF2a)
Chain of PERK (Q9NZJ5 30-1116): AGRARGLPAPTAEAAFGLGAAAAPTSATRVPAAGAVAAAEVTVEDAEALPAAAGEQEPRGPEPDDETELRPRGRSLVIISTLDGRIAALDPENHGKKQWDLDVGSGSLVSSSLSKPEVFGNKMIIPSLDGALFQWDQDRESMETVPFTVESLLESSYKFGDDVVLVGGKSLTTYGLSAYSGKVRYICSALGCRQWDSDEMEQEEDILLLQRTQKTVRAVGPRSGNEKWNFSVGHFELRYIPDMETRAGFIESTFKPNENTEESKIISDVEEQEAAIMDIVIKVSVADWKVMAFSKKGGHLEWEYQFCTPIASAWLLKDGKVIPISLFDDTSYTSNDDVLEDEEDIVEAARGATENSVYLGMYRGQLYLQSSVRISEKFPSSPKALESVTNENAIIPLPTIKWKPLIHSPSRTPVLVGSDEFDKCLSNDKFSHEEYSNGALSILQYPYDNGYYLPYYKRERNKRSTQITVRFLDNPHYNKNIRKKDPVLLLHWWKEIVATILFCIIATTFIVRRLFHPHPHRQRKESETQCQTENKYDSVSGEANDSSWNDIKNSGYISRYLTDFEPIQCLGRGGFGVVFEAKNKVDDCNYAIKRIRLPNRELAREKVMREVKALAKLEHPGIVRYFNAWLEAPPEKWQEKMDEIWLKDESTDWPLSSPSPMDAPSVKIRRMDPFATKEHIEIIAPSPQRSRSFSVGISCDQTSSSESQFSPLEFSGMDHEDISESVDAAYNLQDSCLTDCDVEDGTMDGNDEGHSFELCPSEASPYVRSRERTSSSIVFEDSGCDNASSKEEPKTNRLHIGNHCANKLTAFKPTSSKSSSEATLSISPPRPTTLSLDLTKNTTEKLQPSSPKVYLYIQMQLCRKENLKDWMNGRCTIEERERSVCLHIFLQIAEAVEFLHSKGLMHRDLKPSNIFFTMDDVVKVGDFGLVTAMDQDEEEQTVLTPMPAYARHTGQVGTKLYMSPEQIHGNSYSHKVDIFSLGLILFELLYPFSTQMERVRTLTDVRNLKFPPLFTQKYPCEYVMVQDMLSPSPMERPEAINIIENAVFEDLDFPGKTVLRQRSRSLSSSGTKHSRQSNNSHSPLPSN
Method in brief: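 After 2 h tunicamycin ([…]) stress following 30 min compound pretreatment at 37 °C, lysed HEK293-EGFP-eIF2α cells were read by TR-FRET. IC50 derived by 4-parameter logistic fitting of percent inhibition, DMSO-normalized, from 10-point 3-fold dilutions.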

Chain of EIF2AK3 (PERK) catalytic domain (amino acids 536-1116) (Q9NZJ5 536-1116): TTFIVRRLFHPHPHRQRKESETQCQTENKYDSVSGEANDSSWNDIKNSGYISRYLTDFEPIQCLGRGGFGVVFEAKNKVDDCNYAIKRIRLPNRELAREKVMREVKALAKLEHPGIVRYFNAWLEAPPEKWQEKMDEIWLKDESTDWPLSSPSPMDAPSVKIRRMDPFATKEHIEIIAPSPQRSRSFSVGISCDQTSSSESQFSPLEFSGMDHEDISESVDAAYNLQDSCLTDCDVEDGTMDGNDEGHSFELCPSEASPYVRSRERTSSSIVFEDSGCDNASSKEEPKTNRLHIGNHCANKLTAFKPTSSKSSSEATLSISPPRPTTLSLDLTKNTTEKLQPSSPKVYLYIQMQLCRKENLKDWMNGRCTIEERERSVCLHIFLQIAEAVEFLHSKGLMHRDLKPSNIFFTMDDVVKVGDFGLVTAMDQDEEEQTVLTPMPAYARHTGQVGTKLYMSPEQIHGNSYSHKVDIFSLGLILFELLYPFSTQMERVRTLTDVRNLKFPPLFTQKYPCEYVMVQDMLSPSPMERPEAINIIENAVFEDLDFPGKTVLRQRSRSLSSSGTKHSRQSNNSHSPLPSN

IC50 [1] | IC50 (PERK) | Structure (SMILES)
1 to 25 nM | 1 to 2 µM | Cc1cc(NC(=O)C(O)c2cc(F)cc(F)c2)ccc1-c1cnc(N)c(C(=O)NC2CN(C)C2)c1 (centres unmarked) [Example 47, 2-amino-5-(4-(2-(3,5-difluorophenyl)-2-hydroxyacetamido)-2-methylphenyl)-N-(1-methylazetidin-3-yl)nicotinamide]
1 to 25 nM | 0.251 to 0.5 µM | Cc1cc(NC(=O)C(O)c2cc(F)cc(F)c2)ccc1-c1cnc(N)c(C(=O)NCCO)c1 (centres unmarked) [Example 56, 2-amino-5-(4-(2-(3,5-difluorophenyl)-2-hydroxyacetamido)-2-methylphenyl)-N-(2-hydroxyethyl) nicotinamide]
101 to 250 nM | 2 to 3 µM | Cc1cc(NC(=O)C(O)c2cc(F)cc(F)c2)ccc1-c1cnc(N)c(C(=O)NCCO)c1 (centres unmarked) [Example 57, 2-amino-5-(4-(2-(3,5-difluorophenyl)-2-hydroxyacetamido)-2-methylphenyl)-N-(2-hydroxyethyl) nicotinamide]
101 to 250 nM | 1 to 2 µM | Cc1cccc(C(O)C(=O)Nc2ccc(-c3cnc(N)c(C(=O)NC(C)C)c3)c(C)c2)c1 (centres unmarked) [Example 66, 2-amino-5-(4-(2-hydroxy-2-(m-tolyl)acetamido)-2-methylphenyl)-N-isopropylnicotinamide]
1 to 25 nM | 0.051 to 0.1 µM | Cc1cccc(C(O)C(=O)Nc2ccc(-c3cnc(N)c(C(=O)NC(C)C)c3)c(C)c2)c1 (centres unmarked) [Example 67, 2-amino-5-(4-(2-hydroxy-2-(m-tolyl)acetamido)-2-methylphenyl)-N-isopropylnicotinamide]
101 to 250 nM | 0.501 to 1 µM | Cc1cc(NC(=O)C(O)c2cccc(Cl)c2)ccc1-c1cnc(N)c(C(=O)NC(C)C)c1 (centres unmarked) [Example 68, 2-amino-5-(4-(2-(3-chlorophenyl)-2-hydroxyacetamido)-2-methylphenyl)-N-isopropylnicotinamide]
1 to 25 nM | 0.026 to 0.05 µM | Cc1cc(NC(=O)C(O)c2cccc(Cl)c2)ccc1-c1cnc(N)c(C(=O)NC(C)C)c1 (centres unmarked) [Example 69, 2-amino-5-(4-(2-(3-chlorophenyl)-2-hydroxyacetamido)-2-methylphenyl)-N-isopropylnicotinamide]
251 to 500 nM | 1 to 2 µM | Cc1cc(NC(=O)C(O)c2cccc3c2OCC3)ccc1-c1cnc(N)c(C(=O)NC(C)C)c1 (centres unmarked) [Example 74, 2-amino-5-(4-(2-(2,3-dihydrobenzofuran-7-yl)-2-hydroxyacetamido)-2-methylphenyl)-N-isopropylnicotinamide]
101 to 250 nM | 1 to 2 µM | Cc1cc(NC(=O)C(O)c2cccc3c2OCC3)ccc1-c1cnc(N)c(C(=O)NC(C)C)c1 (centres unmarked) [Example 75, 2-amino-5-(4-(2-(2,3-dihydrobenzofuran-7-yl)-2-hydroxyacetamido)-2-methylphenyl)-N-isopropylnicotinamide]
251 to 500 nM | 3 to 4 µM | Cc1cc(NC(=O)C(O)c2cccc3cnn(C)c23)ccc1-c1cnc(N)c(C(=O)NC(C)C)c1 (centres unmarked) [Example 76, 2-amino-5-(4-(2-hydroxy-2-(1-methyl-1H-indazol-7-yl)acetamido)-2-methylphenyl)-N-isopropylnicotinamide]
501 to 1000 nM | 3 to 4 µM | Cc1cc(NC(=O)C(O)c2cccc3cnn(C)c23)ccc1-c1cnc(N)c(C(=O)NC(C)C)c1 (centres unmarked) [Example 77, 2-amino-5-(4-(2-hydroxy-2-(1-methyl-1H-indazol-7-yl)acetamido)-2-methylphenyl)-N-isopropylnicotinamide]
1000 to 2000 nM | > 5 µM | Cc1nc(C(O)C(=O)Nc2ccc(-c3cnc(N)c(C(=O)NC(C)C)c3)c(C)c2)cs1 (centres unmarked) [Example 78, 2-amino-5-(4-(2-hydroxy-2-(2-methylthiazol-4-yl)acetamido)-2-methylphenyl)-N-isopropylnicotinamide]
1000 to 2000 nM | > 5 µM | Cc1nc(C(O)C(=O)Nc2ccc(-c3cnc(N)c(C(=O)NC(C)C)c3)c(C)c2)cs1 (centres unmarked) [Example 79, 2-amino-5-(4-(2-hydroxy-2-(2-methylthiazol-4-yl)acetamido)-2-methylphenyl)-N-isopropylnicotinamide]
1 to 25 nM | 0.251 to 0.5 µM | CC(C)NC(=O)c1cc(-c2ccc(NC(=O)C(O)c3cc(F)cc(F)c3)cc2)cnc1N (centres unmarked) [Example 80, 2-amino-5-(4-(2-(3,5-difluorophenyl)-2-hydroxyacetamido)phenyl)-N-isopropylnicotinamide]
101 to 250 nM | 4 to 5 µM | CC(C)NC(=O)c1cc(-c2ccc(NC(=O)C(O)c3cc(F)cc(F)c3)cc2)cnc1N (centres unmarked) [Example 81, 2-amino-5-(4-(2-(3,5-difluorophenyl)-2-hydroxyacetamido)phenyl)-N-isopropylnicotinamide]
1 to 25 nM | 0.026 to 0.05 µM | CCNC(=O)c1cc(-c2ccc(NC(=O)C(O)c3cc(F)cc(F)c3)cc2Cl)cnc1N (centres unmarked) [Example 82, 2-amino-5-(2-chloro-4-(2-(3,5-difluorophenyl)-2-hydroxyacetamido)phenyl)-N-ethylnicotinamide]

IC50 [1] | IC50 (PERK) | Structure (SMILES)
1 to 25 nM | 0.251 to 0.5 µM | CCNC(=O)c1cc(-c2ccc(NC(=O)C(O)c3cc(F)cc(F)c3)cc2Cl)cnc1N (centres unmarked) [Example 83, 2-amino-5-(2-chloro-4-(2-(3,5-difluorophenyl)-2-hydroxyacetamido)phenyl)-N-ethylnicotinamide]
1 to 25 nM | 0.001 to 0.025 µM | Nc1ncc(-c2ccc(NC(=O)C(O)c3cc(F)cc(F)c3)cc2Cl)cc1C(=O)NC1CC1 (centres unmarked) [Example 84, 2-amino-5-(2-chloro-4-(2-(3,5-difluorophenyl)-2-hydroxyacetamido)phenyl)-N-cyclopropyl-nicotinamide]
1 to 25 nM | 0.051 to 0.1 µM | Nc1ncc(-c2ccc(NC(=O)C(O)c3cc(F)cc(F)c3)cc2Cl)cc1C(=O)NC1CC1 (centres unmarked) [Example 85, 2-amino-5-(2-chloro-4-(2-(3,5-difluorophenyl)-2-hydroxyacetamido)phenyl)-N-cyclo-propylnicotinamide]
1 to 25 nM | 0.001 to 0.025 µM | Nc1ncc(-c2ccc(NC(=O)C(O)c3cc(F)cc(F)c3)cc2Cl)cc1C(=O)NCC(F)(F)F (centres unmarked) [Example 86, 2-amino-5-(2-chloro-4-(2-(3,5-difluorophenyl)-2-hydroxyacetamido)phenyl)-N-(2,2,2-trifluoroethyl) nicotinamide]
26 to 50 nM | 0.101 to 0.25 µM | Nc1ncc(-c2ccc(NC(=O)C(O)c3cc(F)cc(F)c3)cc2Cl)cc1C(=O)NCC(F)(F)F (centres unmarked) [Example 87, 2-amino-5-(2-chloro-4-(2-(3,5-difluorophenyl)-2-hydroxyacetamido)phenyl)-N-(2,2,2-trifluoroethyl) nicotinamide]
1 to 25 nM | 0.001 to 0.025 µM | CCc1cccc(C(O)C(=O)Nc2ccc(-c3cnc(N)c(C(=O)NC(C)C)c3)c(Cl)c2)c1 (centres unmarked) [Example 94, 2-amino-5-(2-chloro-4-(2-(3-ethylphenyl)-2-hydroxyacetamido)phenyl)-N-isopropylnicotinamide]
26 to 50 nM | 0.101 to 0.25 µM | CCc1cccc(C(O)C(=O)Nc2ccc(-c3cnc(N)c(C(=O)NC(C)C)c3)c(Cl)c2)c1 (centres unmarked) [Example 95, 2-amino-5-(2-chloro-4-(2-(3-ethylphenyl)-2-hydroxyacetamido)phenyl)-N-isopropylnicotinamide]
1 to 25 nM | 0.001 to 0.025 µM | CCNC(=O)c1cc(-c2ccc(NC(=O)C(O)c3cc(F)cc(F)c3)cc2CC)cnc1N (centres unmarked) [Example 98, 2-amino-5-(4-(2-(3,5-difluorophenyl)-2-hydroxyacetamido)-2-ethylphenyl)-N-ethylnicotinamide]
26 to 50 nM | 0.101 to 0.25 µM | CCNC(=O)c1cc(-c2ccc(NC(=O)C(O)c3cc(F)cc(F)c3)cc2CC)cnc1N (centres unmarked) [Example 99, 2-amino-5-(4-(2-(3,5-difluorophenyl)-2-hydroxyacetamido)-2-ethylphenyl)-N-ethylnicotinamide]
1 to 25 nM | 0.001 to 0.025 µM | CCc1cc(NC(=O)C(O)c2cc(F)cc(F)c2)ccc1-c1cnc(N)c(C(=O)NCC(F)(F)F)c1 (centres unmarked) [Example 100, 2-amino-5-(4-(2-(3,5-difluorophenyl)-2-hydroxyacetamido)-2-ethylphenyl)-N-(2,2,2-trifluoroethyl) nicotinamide]
1 to 25 nM | 0.051 to 0.1 µM | CCc1cc(NC(=O)C(O)c2cc(F)cc(F)c2)ccc1-c1cnc(N)c(C(=O)NCC(F)(F)F)c1 (centres unmarked) [Example 101, 2-amino-5-(4-(2-(3,5-difluorophenyl)-2-hydroxyacetamido)-2-ethylphenyl)-N-(2,2,2-trifluoroethyl) nicotinamide]
1 to 25 nM | 0.001 to 0.025 µM | CCc1cc(NC(=O)C(O)c2cc(F)cc(F)c2)ccc1-c1cnc(N)c(C(=O)NC2CC2)c1 (centres unmarked) [Example 102, 2-amino-N-cyclopropyl-5-(4-(2-(3,5-difluorophenyl)-2-hydroxyacetamido)-2-ethylphenyl) nicotinamide]
26 to 50 nM | 0.101 to 0.25 µM | CCc1cc(NC(=O)C(O)c2cc(F)cc(F)c2)ccc1-c1cnc(N)c(C(=O)NC2CC2)c1 (centres unmarked) [Example 103, 2-amino-N-cyclopropyl-5-(4-(2-(3,5-difluorophenyl)-2-hydroxyacetamido)-2-ethylphenyl) nicotinamide]
1 to 25 nM | 0.001 to 0.025 µM | CCc1cccc(C(O)C(=O)Nc2ccc(-c3cnc(N)c(C(=O)NC(C)C)c3)c(CC)c2)c1 (centres unmarked) [Example 106, 2-amino-5-(2-ethyl-4-(2-(3-ethylphenyl)-2-hydroxyacetamido)phenyl)-N-isopropylnicotinamide]
51 to 100 nM | 0.251 to 0.5 µM | CCc1cccc(C(O)C(=O)Nc2ccc(-c3cnc(N)c(C(=O)NC(C)C)c3)c(CC)c2)c1 (centres unmarked) [Example 107, 2-amino-5-(2-ethyl-4-(2-(3-ethylphenyl)-2-hydroxyacetamido)phenyl)-N-isopropylnicotinamide]
